In patent publication US6362166B1, “Antipicornaviral compounds and methods for their use and preparation” (Agouron Pharmaceuticals, Inc., priority 1996, dated 2002):
Like-named read-outs stand apart in the source and are kept apart here.

Assays:
[1] = molecular target: T1, Recombinant Rhinovirus 3C protease (RVP) serotype-14 (Human rhinovirus 14, UniProt P03303); assay: Inhibition of Rhinovirus Protease (fluorescence resonance energy transfer assay), serotype 14; type: biochemical, human rhinovirus (HRV); conditions: for kobs/I: progress curves in enzyme start experiments; for kinact/KI: pH 7.6, read-out: kobs/I
T1 construct: Recombinant Rhinovirus 3C proteases from serotypes 14, 16, 2 or 89; made in house
T1 sequence (P03303 1538-1719): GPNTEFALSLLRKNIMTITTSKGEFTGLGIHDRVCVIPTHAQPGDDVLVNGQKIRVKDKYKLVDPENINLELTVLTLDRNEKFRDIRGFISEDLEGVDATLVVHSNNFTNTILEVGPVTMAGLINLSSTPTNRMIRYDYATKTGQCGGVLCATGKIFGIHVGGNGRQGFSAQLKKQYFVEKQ

[2] = tested on: HRV-14; assay: Antirhinoviral HI-HeLa Cell Culture Assay (Cell Protection Assay, XTT dye reduction); type: cell-based, human rhinovirus (HRV) serotype-14
Procedure, shortened: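 Protection measured via XTT dye reduction (450/650 nm) two days after compound treatment of HI-HeLa cells, mock-infected or infected with cDNA-derived HRV-14 at m.o.i. 0.13. CC50 divided by EC50 gives the therapeutic index.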

[3] = tested on: HI-HeLa cells; assay: Cytotoxicity in mock-infected HI-HeLa cells (antirhinoviral assay, XTT); type: cell-based
[4] = tested on: CVB-3; assay: Anticoxsackieviral HI-HeLa Cell Culture Assay (XTT dye reduction); type: cell-based, Coxsackie strain B-3 (CVB-3); conditions: HI-HeLa cells infected with CVB-3, m.o.i. 0.08, one day
Procedure: (§1) Specifically, HI-HeLa cells were infected wtih […] at a multiplicity of infection (m.o.i.) of 0.08 or mock-infected with medium only. Infected or mock-infected cells were resuspended at 8×10^5 cells per mL and incubated with appropriate concentrations of compound. One day later, XTT/PMS were added to test plates and the amount of formazan produced was quantified spectrophotometrically at 450/650 nm. […] The therapeutic index (TI) was calculated by dividing the CC50 by the EC50.
(§2) The Coxsackie strain B-3 (CVB-3) was purchased from American Type Culture Collection (ATCC). Virus stocks were propgated and antiviral assays were performed in Hi-HeLa cells (ATCC). Cells were grown in Minimal Essential Medium with 10% fetal bovine serum.

[5] = tested on: HI-HeLa cells; assay: Cytotoxicity in mock-infected HI-HeLa cells (anticoxsackieviral assay, XTT); type: cell-based
Procedure: as §1, with “The ability of compounds to protect calls against CVB-3 infection was measured by the XTT dye reduction method, which is described in Weislow, O. S., R. Kiser, D. L. Fine, J. Bader, R. H. Shoemaker, and M. R. Boyd, 1989, J. Natl. Cancer Inst. 81:577-586, which is incorporated herein by reference. Specifically,” for “Specifically,”
as §2

[6] = Cytotoxicity in mock-infected HI-HeLa cells (antirhinoviral assay, XTT); type: cell-based; conditions: human; mock-infected HI-HeLa cells; two days; XTT; read-out: CC50
[7] = tested on: Human Rhinovirus-serotype 10 (HRV-10); assay: Normal Human Bronchial Epithelial Cell Assay (MTT); type: cell-based; conditions: normal human bronchial cells, HRV-10 at m.o.i. 10, 3-4 days at 34° C., read-out: ED50 (the source's name)
Procedure: Normal human bronchial cells were obtained from cadavers and cultured. The cells were plated at 2×10^4 per well in a […] plate. They were allowed to adhere and grow for 24 hours in 200 μL of serum-free bronchial/tracheal epithelial cell growth medium at 37° C. with 5% CO2. Human Rhinovirus-serotype 10 (HRV-10) was purchased from American Type Culture Collection (ATCC). To start the assay, the supernatant was removed, and HRV-10 at an m.o.i. of 10 (virus particles/cell) was added to each well along with the appropriate amount of compound of formula I or II. The plate was then incubated at 34° C. After 3 hours the supernatant was removed, and 200 μL of media was added along with the same concentration of compound as used in the beginning of the assay. The plates were incubated for 3-4 days at 34° C. To determine the amount of cell growth, an MTT assay (0.5 mgs/mL), as described in Mosmann, T. J. J. Immunol. Methods 1983, 65, 55-63, which is incorporated herein by reference, was performed on the cells, and the plate was read at an optical density of 540 nm. The compounds were tested against control compound Pirodavir, obtained from Janssen Pharmaceuticals. The EC50 was measured as described above for the HI-HeLa Cell Culture Assay.

[8] = molecular target: T2, Recombinant Rhinovirus 3C protease (RVP) serotype 16 (Human rhinovirus 16, UniProt Q82122); assay: Inhibition of Rhinovirus Protease (fluorescence resonance energy transfer assay), serotype 16; type: biochemical, human rhinovirus (HRV); conditions: RVP serotype 16, progress curves in enzyme start experiments; for kinact/KI: pH 7.6, read-out: kobs/I
T2 construct: Recombinant Rhinovirus 3C proteases from serotypes 14, 16, 2 or 89; made in house
T2 sequence (Q82122 1511-1693): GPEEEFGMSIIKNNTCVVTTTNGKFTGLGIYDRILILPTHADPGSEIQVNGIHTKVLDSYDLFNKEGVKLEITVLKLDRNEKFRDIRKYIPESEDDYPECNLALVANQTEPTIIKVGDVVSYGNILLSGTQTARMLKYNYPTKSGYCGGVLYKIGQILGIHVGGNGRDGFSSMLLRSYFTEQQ
Procedure: (§3) Stock solution (50 mM, in DMSO) of various compounds were prepared; dilutions were in the same solvent. Recombinant Rhinovirus 3C proteases from serotypes 14, 16, 2 or 89 were prepared by the following standard chromatographic procedures: (1) ion exchange using Q Sepharose Fast Flow from Pharmacia; (2) affinity chromatography using Affi-Gel Blue from Biorad; and (3) sizing using Sephadex G-100 from Pharmacia. Assays contained 2% DMSO, 50 mM tris pH 7.6, 1 mM EDTA, a compound at the indicated concentrations, approximately 1 μM substrate, and 50-100 nM protease. […] The kobs/I values were obtained from reactions initiated by addition of enzyme rather than substrate. RVP activity is measured in the fluorescence resonance energy transfer assay. The substrate was (N-terminal) DABCYL-([…]Gyl)-EDANS. In the uncleaved peptide, the EDANS fluorescence was quenched by the proximal DABCYL moeity. When the peptide was cleaved, the quenching was relieved, and activity was measured as an increase in fluorescence signal.
(§4) In the above table, all data is RVP serotype-14 unless otherwise noted in parentheses. All strains of human rhinovirus (HRV) were purchased from American Type Culture Collection (ATCC), except for serotype 14, which was produced from the infectious cDNA clone constructed and supplied to us by Dr. Roland Rueckert at the Institute for Molecular Virology, University of Wisconsin, Madison, Wisc. […] The data in the column designated kobs/I was measured from progress curves in enzyme start experiments.

[9] = molecular target: T3, Recombinant Rhinovirus 3C protease (RVP) serotype 2 (Human rhinovirus 2, UniProt P04936); assay: Inhibition of Rhinovirus Protease (fluorescence resonance energy transfer assay), serotype 2; type: biochemical, human rhinovirus (HRV); conditions: for kinact/KI: pH 7.6, progress curves in enzyme start experiments, read-out: kobs/I; for kobs/I: progress curves in enzyme start experiments
T3 construct: Recombinant Rhinovirus 3C proteases from serotypes 14, 16, 2 or 89; made in house
T3 sequence (P04936 1508-1690): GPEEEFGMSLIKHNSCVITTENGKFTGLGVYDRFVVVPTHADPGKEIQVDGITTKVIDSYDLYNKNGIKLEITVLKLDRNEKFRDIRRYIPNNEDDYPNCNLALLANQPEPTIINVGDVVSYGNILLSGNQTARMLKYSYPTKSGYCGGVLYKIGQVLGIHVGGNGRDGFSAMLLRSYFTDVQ
Procedure: as §3, §4

[10] = HI-HeLa cells infected with HRV-14, m.o.i. 0.13, two days, XTT, read-out: EC50
[11] = mock-infected HI-HeLa cells, two days, XTT, read-out: CC50
[12] = mock-infected HI-HeLa cells, one day, XTT, read-out: CC50
[13] = Rhinovirus B, HRV14, 48 h, HI-HeLa cells infected with HRV-14, m.o.i. 0.13, two days, XTT, read-out: EC50
[14] = RVP serotype-14, 10 minute preincubation, substrate start, read-out: INHIB (Ki)

Compound	kobs/I ([1]; RVP serotype-14)	EC50 [2, 10]	Ki [1]	kinact/KI [1]	EC50 [2, 13]	CC50 at 2 days [6]	kinact/KI [8]	kinact/KI [9]	further results
CC(C)C[C@H](NC(=O)OCc1ccccc1)C(=O)N[C@@H](Cc1ccccc1)C(=O)N[C@H](/C=C/C(=O)c1ccccc1)CCC(N)=O [Compound 24, 1-Phenyl-3-(CBZ-L-Leu-L-Phe-L-Gln)-E-Propenone]	500,000 M-1 sec-1	4 µM							CC50 [3, 11]: 16 µM; EC50 [4]: 10 µM; CC50 [5, 12]: 10 µM
CCOC(=O)/C=C/[C@H](CC[S+](C)[O-])NC(=O)[C@H](Cc1ccccc1)NC(=O)[C@H](CC(C)C)NC(=O)OCc1ccccc1 (stereo partly drawn) [Compound 12, Ethyl-3-[CBZ-L-Leu-L-Phe-L-Met(sulfoxide)]-E-propenoate]			4.3 µM	2200 M⁻¹ s⁻¹	1.6 µM	> 100 µM			EC50 ([7]; Epithelial cell): 0.004 µM
Cc1cc(CCCCCOc2c(Cl)cc(C3=NCCO3)cc2Cl)on1 [WIN 54954, reference compound]		2.13 µM							CC50 [3, 11]: > 63 µM; EC50 [4]: > 100 µM; CC50 [5, 12]: > 100 µM
CCOC(=O)/C=C/[C@H](CCC(N)=O)NC(=O)[C@H](Cc1ccccc1)NC(=O)[C@H](CC(=O)O)NC(=O)OCc1ccccc1 [Compound 159]			0.5 µM	35000 M⁻¹ s⁻¹	2.4 µM	> 320 µM	6500 M⁻¹ s⁻¹	2500 M⁻¹ s⁻¹	
CCOC(=O)/C=C/[C@H](CCC(N)=O)NC(=O)[C@H](Cc1ccccc1)NC(=O)[C@H](CC(C)C)NC(=O)SCC [Compound 120]			6 µM	91300 M⁻¹ s⁻¹	0.46 µM	> 320 µM	20000 M⁻¹ s⁻¹	8900 M⁻¹ s⁻¹	
CCOC(=O)/C=C/[C@H](CCC(N)=O)NC(=O)[C@H](Cc1ccccc1)NC(=O)[C@H](CCC(=O)O)NC(=O)OCc1ccccc1 [Compound 154]			1.1 µM	78900 M⁻¹ s⁻¹	5.5 µM	> 320 µM	13900 M⁻¹ s⁻¹	5400 M⁻¹ s⁻¹	
CCOC(=O)/C=C/[C@H](CNC(C)=O)NC(=O)[C@H](Cc1ccccc1)NC(=O)[C@H](CC(C)C)NC(=O)OCc1ccccc1 [Compound 4, Ethyl-3-[CBZ-L-Leu-L-Phe-L-(N-Ac-amino)-Ala]-E-Propenoate]	790 M⁻¹ s⁻¹	2.2 µM							INHIB (percent inhibition) ([1]; RVP serotype-14, 0.5 μM compound, 10 minute preincubation with 50 nM RVP): 49(0.5) percent; CC50 [3]: > 320 µM; EC50 [7]: 0.15 µM
CCOC(=O)C=CC(CCC(N)=O)NC(=O)C(Cc1ccccc1)NC(=O)C(CCc1ccccc1)NC(=O)OCc1ccccc1 (stereo not drawn) [Compound 148]				57000 M⁻¹ s⁻¹	0.25 µM	> 320 µM	14800 M⁻¹ s⁻¹	8300 M⁻¹ s⁻¹	
CCOC(=O)/C=C/[C@H](CCC(N)=O)NC(=O)[C@H](Cc1ccccc1)NC(=O)[C@H](CC(C)C)NC(=O)SCc1ccccc1 [Compound 106]			2 µM	280000 M⁻¹ s⁻¹	0.27 µM	> 320 µM	75000 M⁻¹ s⁻¹	28400 M⁻¹ s⁻¹	
CC(C)C[C@H](NC(=O)OCc1ccccc1)C(=O)N[C@@H](Cc1ccccc1)C(=O)N[C@H](/C=C/C(=O)N1CCc2ccccc21)CCC(N)=O [Compound 85]			3 µM	6500 M⁻¹ s⁻¹	16 µM	> 320 µM			EC50 ([7]; Epithelial cell): 0.005 µM
CC(C)C[C@H](NC(=O)OCc1ccccc1)C(=O)N[C@@H](Cc1ccccc1)C(=O)N[C@H](/C=C/C(=O)N1CC=CC1)CCC(N)=O [Compound 41]	8,464 M-1 sec-1	56 µM							CC50 [3]: 56 µM; EC50 [4]: > 100 µM; CC50 [5]: > 100 µM
CCOC(=O)/C=C/[C@H](CCC(N)=O)NC(=O)[C@H](Cc1ccccc1)NC(=O)[C@H](Cc1ccccc1)NC(=O)OCc1ccccc1 [Compound 157]			6 µM	162000 M⁻¹ s⁻¹	0.56 µM	> 320 µM	30800 M⁻¹ s⁻¹	9700 M⁻¹ s⁻¹	
CCOC(=O)C=CC(CCC(N)=O)NC(=O)C(Cc1ccc(C)cc1)NC(=O)C(CC(C)C)NC(=O)OCc1ccccc1 (stereo not drawn) [Compound 155]				59400 M⁻¹ s⁻¹		> 320 µM	5250 M⁻¹ s⁻¹	1390 M⁻¹ s⁻¹	EC50 ([2]; Rhinovirus B, HRV14, 48 h): 0.18 µM
Ethyl-3-[CBZ-L-Leu-L-Phe-L-[N-(2-pyrrolidinone)]-Ala]-E-Propenoate [Compound 5]	221 M⁻¹ s⁻¹	1.6 µM							Ki [1, 14]: 7.1 µM; CC50 [3]: 251 µM; EC50 [7]: 0.001 µM
CCOC(=O)/C=C/[C@H](CCC(N)=O)NC(=O)[C@H](Cc1ccccc1)NC(=O)[C@H](CSc1ccccc1)NC(=O)OCc1ccccc1 [Compound 153]			1.4 µM	141000 M⁻¹ s⁻¹	0.12 µM	> 320 µM	30600 M⁻¹ s⁻¹	13400 M⁻¹ s⁻¹	
CC(C)C[C@H](NC(=O)OCc1ccccc1)C(=O)N[C@@H](Cc1ccccc1)C(=O)N[C@H](/C=C/c1ccccn1)CCC(N)=O [Compound 23]	120 M⁻¹ s⁻¹	> 100 µM							Ki [1, 14]: 177 µM; CC50 [3, 11]: > 100 µM; EC50 [4]: > 100 µM; CC50 [5, 12]: > 100 µM
CCOC(=O)/C=C/[C@H](CCC(N)=O)NC(=O)[C@H](Cc1ccccc1)NC(=O)[C@H](CCc1ccccc1)NC(=O)SCc1ccccc1 [Compound 162]	800,000 M-1 sec-1	0.32 µM							kobs/I [8]: 80,000 M-1 sec-1; kobs/I [9]: 150,000 M-1 sec-1; CC50 [3]: > 100 µM
CCOC(=O)/C=C/[C@H](CCC(N)=O)NC(=O)[C@H](Cc1ccccc1)NC(=O)[C@H](Cc1ccccc1)NC(=O)SCc1ccccc1 [Compound 161]	1,086,000 M-1 sec-1	0.17 µM							kobs/I [8]: 126,000 M-1 sec-1; kobs/I [9]: 200,000 M-1 sec-1; CC50 [3]: > 100 µM
